Results on four molecules are retold here after patent US20200128830A1, “FUSED BICYCLIC HETEROCYCLE DERIVATIVES AS PESTICIDES” (Bayer Aktiengesellschaft, priority 2017, published 2020).

Holding throughout (type): in vivo
For assay [1], the system named is Ctenocephalides felis. In words: Ctenocephalides felis in vitro contact test with adult cat fleas. The following applies: application rate 5 μg/cm^2 (=500 g of ai/ha); adult cat fleas in coated glass tube; after 48 h; dead or moribund. The protocol:
Ctenocephalides felis—In Vitro Contact Tests with Adult Cat Fleas For the coating of the test tubes, 9 mg of active compound are first dissolved in 1 ml of acetone p.a. and then diluted to the desired concentration with acetone p.a. 250 μl of the solution are distributed homogeneously on the inner walls and the base of a 25 ml glass tube by turning and rocking on an orbital shaker (rocking rotation at 30 rpm for 2 h). With 900 ppm of active compound solution and internal surface area 44.7 cm^2, given homogeneous distribution, an area-based dose of 5 μg/cm^2 is achieved. After the solvent has evaporated off, the tubes are populated with 5-10 adult cat fleas (Ctenocephalides felis), sealed with a perforated plastic lid and incubated in a horizontal position at room temperature and ambient humidity. After 48 h, efficacy is determined. To this end, the tubes are stood upright and the fleas are knocked to the base of the tube. Fleas which remain motionless at the base or move in an uncoordinated manner are considered to be dead or moribund. […] 100% efficacy means that all the fleas were dead or moribund. 0% efficacy means that no fleas were harmed.

Assay [2] concerns Ctenocephalides felis. In words: Ctenocephalides felis oral test. The following applies: application rate 100 ppm in citrated cattle blood; unfed adult cat fleas; after 2 days. The protocol:
Ctenocephalides felis—Oral Test Solvent: Dimethyl Sulfoxide To produce a suitable active compound formulation, 10 mg of active compound are mixed with 0.5 ml of dimethyl sulfoxide. Dilution with citrated cattle blood gives the desired concentration. About 20 unfed adult cat fleas (Ctenocephalides felis) are placed into a chamber which is closed at the top and bottom with gauze. A metal cylinder whose bottom end is closed with parafilm is placed onto the chamber. The cylinder contains the blood/active compound formulation, which can be imbibed by the fleas through the parafilm membrane. After 2 days, the kill in % is determined. 100% means that all of the fleas have been killed; 0% means that none of the fleas have been killed.

For the next assay, the system named is Lucilia cuprina. Nature of the assay: Lucilia cuprina test. The following applies: application rate 100 ppm; L1 larvae on minced horsemeat; after 2 days. The protocol:
Lucilia cuprina Test Solvent: Dimethyl Sulfoxide To produce a suitable active compound formulation, 10 mg of active compound are mixed with 0.5 ml of dimethyl sulfoxide, and the concentrate is diluted with water to the desired concentration. About 20 L1 larvae of the Australian sheep blowfly (Lucilia cuprina) are transferred into a test vessel containing minced horsemeat and the active compound preparation of the desired concentration. After 2 days, the kill in % is determined. 100% means that all the larvae have been killed; 0% means that no larvae have been killed.

A further assay deals with Musca domestica. Nature of the assay: Musca domestica test. The following applies: application rate 100 ppm; adult houseflies, sponge with sugar solution; after 2 days. The protocol:
Musca domestica Test Solvent: Dimethyl Sulfoxide To produce a suitable active compound formulation, 10 mg of active compound are mixed with 0.5 ml of dimethyl sulfoxide, and the concentrate is diluted with water to the desired concentration. Vessels containing a sponge treated with sugar solution and the desired concentration of active compound formulation are populated with 10 adult houseflies (Musca domestica). After 2 days, the kill in % is determined. 100% means that all of the flies have been killed; 0% means that none of the flies have been killed.

The test system of assay [3] is Myzus persicae. In words: Myzus persicae oral test. The following applies: 120 h, application rate 4 ppm, mixed population of green peach aphids, after 5 days, read-out: efficacy. The protocol:
Myzus persicae—Oral Test [table] To produce a suitable active compound formulation, 1 part by weight of active compound is dissolved with the stated parts by weight of solvent and made up to the desired concentration with water. 50 μl of the active compound formulation are transferred into microtitre plates and made up to a final volume of 200 μl with 150 μl of IPL41 insect medium (33%+15% sugar). Subsequently, the plates are sealed with parafilm, which a mixed population of green peach aphids (Myzus persicae) within a second microtitre plate is able to puncture and imbibe the solution. After 5 days, the efficacy in % is determined. 100% means that all the aphids have been killed; 0% means that no aphids have been killed.

A further assay has as its system Phaedon cochleariae. Nature of the assay: Phaedon cochleariae spray test. The following applies: foliar, 168 h, application rate 100 g/ha, larvae on Chinese cabbage leaf discs, after 7 days, read-out: efficacy. The method, then: Phaedon cochleariae—Spray Test
(§1) To produce a suitable active compound formulation, 1 part by weight of active compound is dissolved with the specified parts by weight of solvent and made up to the desired concentration with water containing an emulsifier concentration of 1000 ppm. To produce further test concentrations, the formulation is diluted with emulsifier-containing water.
Discs of Chinese cabbage leaves (Brassica pekinensis) are sprayed with an active compound formulation of the desired concentration and, after drying, populated with larvae of the mustard beetle (Phaedon cochleariae).
After 7 days, the efficacy in % is determined. 100% means that all the beetle larvae have been killed; 0% means that no beetle larvae have been killed.

Another assay deals with Spodoptera frugiperda. Nature of the assay: Spodoptera frugiperda spray test. The following applies: foliar, 168 h, application rate 100 g/ha, caterpillars on maize leaf discs, after 7 days, read-out: efficacy. The protocol:
Spodoptera frugiperda—Spray Test [table] To produce a suitable active compound formulation, 1 part by weight of active compound is dissolved with the specified parts by weight of solvent and made up to the desired concentration with water containing an emulsifier concentration of 1000 ppm. To produce further test concentrations, the formulation is diluted with emulsifier-containing water. Leaf discs of maize (Zea mays) are sprayed with an active compound formulation of the desired concentration and, after drying, populated with caterpillars of the fall armyworm (Spodoptera frugiperda). After 7 days, the efficacy in % is determined. 100% means that all the caterpillars have been killed; 0% means that no caterpillar has been killed.

For assay [4], the system named is Myzus persicae. Nature of the assay: Myzus persicae spray test. The following applies: foliar, 120 h, application rate 100 g/ha, Chinese cabbage leaf discs infested by all stages, after 5 days, read-out: efficacy. The protocol: Myzus persicae—Spray Test [table] To produce a suitable active compound formulation, 1 part by weight of active compound is dissolved with the specified parts by weight of solvent and made up to the desired concentration with water containing an emulsifier concentration of 1000 ppm. To produce further test concentrations, the formulation is diluted with emulsifier-containing water. Discs of Chinese cabbage leaves (Brassica pekinensis) infested by all stages of the green peach aphid (Myzus persicae) are sprayed with an active compound formulation of the desired concentration. After 5 days, the efficacy in % is determined. 100% means that all the aphids have been killed; 0% means that no aphids have been killed.

A further assay deals with Tetranychus urticae. In words: Tetranychus urticae spray test, OP-resistant. The following applies: application rate 100 g/ha, bean leaf discs infested with all stages, after 6 days. The method, then:
Tetranychus urticae—Spray Test, OP-Resistant
as §1
Discs of bean leaves (Phaseolus vulgaris) infested with all stages of the greenhouse red spider mite (Tetranychus urticae) are sprayed with an active compound formulation of the desired concentration.
After 6 days, the efficacy in % is determined. 100% means that all the spider mites have been killed; 0% means that no spider mites have been killed.

Turning to `CCS(=O)(=O)c1c(-c2nc3cc(C(F)(F)F)ncc3n2C)sc2nc(C(F)(F)F)sc12` [I-10], the efficacy with Ctenocephalides felis [1] was determined as 100%. For the same molecule, the “efficacy (kill in %)” value is listed as 80% in the assay on Ctenocephalides felis [2], 100% in the assay on Lucilia cuprina and 80% in the assay with Musca domestica. Besides, the pest or weed control at 4 ppm with Myzus persicae [3] was 90%. Also, the pest or weed control at 100 g/ha in the assay with Phaedon cochleariae and with Spodoptera frugiperda was 100% throughout.
As to `CCS(=O)(=O)c1c(-c2nc3cc(C(F)(F)F)ncc3n2C)sc2cc(C(F)(F)F)sc12` [I-7], the “efficacy (kill in %)” value in the assay with Ctenocephalides felis [2] came out at 95%; with Musca domestica it was 80%. In the assay on Myzus persicae [4], the pest or weed control at 100 g/ha was found to be 100%. Further, the efficacy in the assay on Tetranychus urticae was 90%.
`CCS(=O)(=O)c1c(-c2nc3cc(C(F)(F)F)ncc3n2C)sc2nc(C(F)(F)F)oc12` [I-12]: the results for the “efficacy (kill in %)” value in the assay with Ctenocephalides felis [2] and with Musca domestica were 80% and 85%, respectively. Moreover, the pest or weed control at 4 ppm in the assay with Myzus persicae [3] amounted to 100%. Moreover, the pest or weed control at 100 g/ha in the assay on Myzus persicae [4], in the assay on Phaedon cochleariae and in the assay on Spodoptera frugiperda was 100% in each case. Further, the efficacy with Tetranychus urticae stood at 90%.
`CCS(=O)(=O)c1c(-c2nc3cc(C(F)(F)F)ncc3n2C)sc2c(C(N)=O)csc12` [I-15, 6-(Ethylsulfonyl)-5-[3-methyl-6-(trifluoromethyl)-3H-imidazo[4,5-c]pyridin-2-yl]thieno[3,2-b]thiophene-3-carboxamide]: the pest or weed control at 4 ppm in the assay on Myzus persicae [3] came out at 100%. Further, the pest or weed control at 100 g/ha in the assay on Myzus persicae [4] is 90%. The molecule further yielded an efficacy in the assay on Tetranychus urticae of 90%.
